Experimental data taken from publication PMC8845285, “Serotoninergic receptor ligands improve Tamoxifen effectiveness on breast cancer cells” (BMC Cancer, 2022).

How the values were obtained:
[1] = molecular target: T1, serotonin 5-HT1A receptor (Rattus norvegicus, UniProt P19327); assay: radioligand binding assay, 5-HT1A, [3H]-8-OH-DPAT; details: rat brain cortex
T1 construct: serotonin 5-HT1A receptor, [^3H]-8-OH-DPAT, rat brain cortex; from tissue; host or cells: rat brain cortex
T1 sequence (P19327 1-422): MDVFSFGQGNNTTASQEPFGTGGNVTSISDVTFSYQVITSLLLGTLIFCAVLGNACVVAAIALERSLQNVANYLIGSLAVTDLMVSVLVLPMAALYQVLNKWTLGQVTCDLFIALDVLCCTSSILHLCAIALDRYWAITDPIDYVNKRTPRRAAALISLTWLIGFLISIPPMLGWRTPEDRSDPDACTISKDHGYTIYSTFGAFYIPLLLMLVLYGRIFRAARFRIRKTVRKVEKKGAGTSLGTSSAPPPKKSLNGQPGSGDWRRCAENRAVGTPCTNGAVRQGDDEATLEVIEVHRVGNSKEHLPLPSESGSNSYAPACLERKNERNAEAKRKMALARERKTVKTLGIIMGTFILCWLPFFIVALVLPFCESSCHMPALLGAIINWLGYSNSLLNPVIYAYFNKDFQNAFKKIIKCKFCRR
Description: (§1) All reactions were monitored by TLC, carried out on Merck 60G F254 plates with fluorescent indicator and the plates were visualized with UV light (254 nm). Each final compound and intermediate was purified by silica gel column chromatography (Macherey-Nagel 60 0,063–0,2 mm/70–230 mesh). […] Unless otherwise stated, all spectra were recorded in CDCl3. Chemical shifts are reported in ppm using Me4Si as internal standard. The following abbreviations are used to describe peak patterns when appropriate: s (singlet), d (doublet), t (triplet), m (multiplet), q (quartet), qt (quintet), dd (double doublet), ddd (double dd), bs (broad singlet). Mass spectra of the final products were performed on LTQ Orbitrap XL™ Fourier transform mass spectrometer (FTMS) equipped with ESI ION MAX™ source (Thermo Fisher, San José, USA). Melting points were determined using a Buchi B-540 hot-stage instrument and are uncorrected. […] All the compounds were dissolved in 5% DMSO. The following specific radioligands and tissue sources were used: (a)serotonin 5-HT1A receptor, [^3H]-8-OH-DPAT, rat brain cortex; (b) serotonin 5-HT2A receptor, [^3H]ketanserin, rat brain cortex; (c)serotonin 5-HT2C receptor, [^3H]mesulergine, rat brain cortex. Non-specific binding was determined as described in the experimental section, and specific binding as the difference between total and non-specific binding. […] The IC50 values obtained were used to calculate apparent inhibition constants (Ki) by the method of Cheng and Prussoff, from the following equation: Ki = IC50/(1 + S/KD) where S represents the concentration of the hot ligand used and KD its receptor dissociation constant (KD values, obtained by Scatchard analysis, were calculated for each labeled ligand). Radioligand binding assays for 5-HT1A were performed following a published procedure. 5-HT2A and 5-HT2C binding assays were performed reported by Herndon et al..

[2] = molecular target: T2, serotonin 5-HT2A receptor (Rattus norvegicus, UniProt P14842); assay: radioligand binding assay, 5-HT2A, [3H]ketanserin; details: rat brain cortex; for Ki: read-out: Ki ± SD, 5-HT2A [3H]Ketanserin
T2 construct: serotonin 5-HT2A receptor, [^3H]ketanserin, rat brain cortex; from tissue; host or cells: rat brain cortex
T2 sequence (P14842 whole entry): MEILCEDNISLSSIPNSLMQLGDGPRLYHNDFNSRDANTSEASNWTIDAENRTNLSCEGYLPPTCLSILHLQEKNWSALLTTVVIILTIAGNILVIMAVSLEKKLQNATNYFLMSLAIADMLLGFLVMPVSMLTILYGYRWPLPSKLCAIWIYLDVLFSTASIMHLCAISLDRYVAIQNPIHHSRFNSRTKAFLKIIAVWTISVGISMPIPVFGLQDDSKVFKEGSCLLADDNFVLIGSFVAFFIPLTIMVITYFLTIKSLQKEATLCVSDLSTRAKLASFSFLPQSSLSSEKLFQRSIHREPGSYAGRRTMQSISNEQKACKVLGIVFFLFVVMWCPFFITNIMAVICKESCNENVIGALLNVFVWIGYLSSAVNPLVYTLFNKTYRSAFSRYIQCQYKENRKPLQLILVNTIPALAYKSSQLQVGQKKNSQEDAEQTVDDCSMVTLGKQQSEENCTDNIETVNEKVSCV
Description: as §1

MDA-MB231 cells = assay: MDA-MB231 cell viability, sulforhodamine B assay; assay type: cell-based, human; details: for inhibition of MDA-MB231 cell growth: 100 μM, 72 h; for IC50: Homo sapiens, MDA-MB-231, 72 h treatment
Description: MCF7 (ER^+, PR^+, HER2^−), SKBR3 (ER^−, PR^+, HER2^+) and MDA-MB231 (ER^−, PR^−, HER2^−) human BC cells and MCF10A non-cancer breast epithelial cells were available in our laboratory. MCF7, SKBR3 and MDA-MB231 cells were cultured in DMEM, supplemented with 10% FBS, 2 mM glutamine, 100 units/ml penicillin and 100 units/ml streptomycin. MCF10A cells were cultured in MEBM, supplemented with 0.4% BPE, 0.1% hEGF, 0.1%, Insulin, 0.1% Hydrocortisone and 0.1% GA-1000. […] Treatment with SER were carried out in culture conditions. Treatment with Tamoxifen and/or SER were carried out upon 48 h estrogen starvation in phenol-red free medium supplemented with 10% Charcoal Stripped (C/S) FBS, 2 mM glutamine, 100 units/ml penicillin and 100 units/ml streptomycin.
Cells were fixed with 50% trichloroacetic acid for at least 2 h at 4 °C, washed with distilled and de-ionized water, air-dryed and stained 30 min with 0.4% sulforhodamine B in 1% acetic acid. Unbound dye was removed and 10 mM tris-HCl solution (pH 7.5) was added to dissolve the protein-bound dye. Cell survival was assessed by optical density determination at 510 nm using a microplate reader.
Cell viability was assessed, after 72 h, by sulforhodamine B assay (see Methods).

CTGF = CTGF mRNA levels in MCF7-R cells, qPCR; assay type: cell-based, human; details: SER 20 μM
Description: Total RNA was isolated from cells, quantified (NanoDrop spectrophotometer, Life Technologies, Carlsbad, CA, USA) and reverse transcribed according to the manufacturer’s instructions. Semiquantitative PCR and qPCR assays were performed according to manufacturer’s instructions for Bio-Rad T100 thermal cycler and CFX Connect Real Time system (Biorad, Hercules, CA, USA), respectively. Relative gene expression quantification was measured by 2^−ΔΔCt method normalizing for the reference sample using Rps23 (Ribosomal Protein S23) as housekeeping gene.
Fig. 9 Effect of SER79 and SER68 on Tamoxifen-resistant (MCF7-R) cells. a Estrogen starved MCF7-R were treated with SER79 (20 μM, 5 μM) or SER68 (20 μM) in presence of E2 (100 nM). b Estrogen-starved MCF7-R were treated with Tamoxifen (5 μM) in presence of E2 and SER79 (20 μM) or SER68 (20 μM). a,b As positive control, the cells were treated with E2 alone, in absence or in presence of SER (dotted line). After 72 h, cell viability was assessed by sulforhodamine B assay (see Methods). The results were reported as percentage of viable cells compared to positive control, considered as maximum viability (100%). c mRNA levels of CTGF were determined by qPCR (see Methods and Table 1) in MCF7-R cells upon treatment with SER68 (20 μM). […]

SMILES | Ki ± SD, 5-HT1A [3H]8OH-DPAT [1] | Ki ([1]; read-out: Ki ± SD, 5-HT1A [3H]8OH-DPAT) [µM] | Ki ± SD, 5-HT2A [3H]Ketanserin [2] | Ki [2] [µM] | inhibition of MDA-MB231 cell growth (MDA-MB231 cells) | IC50 (MDA-MB231 cells) [µM] | effect on CTGF mRNA content of MCF7-R cells (CTGF)
N#CN=C(NCCCN1CCN(C(c2ccc(F)cc2)c2ccc(F)cc2)CC1)c1ccccn1 [SER79] | no affinity | > 10 | weak | 0.504 ± 0.0395 | able to inhibit | 117 | –
O=C1C2C3C=CC(C3)C2C(=O)N1OCCN1CCN(c2ccc(Cl)c(Cl)c2)CC1 (centres unmarked) [SER68] | No affinity | – | – | 0.153 ± 0.07 | able to inhibit | 171 ± 37.3 | did not further reduce
